According to patent US5691373A, “Nonpeptide endothelin antagonists I” (Warner-Lambert Company, priority 1995, dated 1997):

Tests used:
ETA = target: T1, ETA (Oryctolagus cuniculus, UniProt A5A8K3); conditions: ERBA-A IC50, [125I]-ET-1, rabbit renal artery vascular smooth muscle cells
T1 sequence (A5A8K3 21-427): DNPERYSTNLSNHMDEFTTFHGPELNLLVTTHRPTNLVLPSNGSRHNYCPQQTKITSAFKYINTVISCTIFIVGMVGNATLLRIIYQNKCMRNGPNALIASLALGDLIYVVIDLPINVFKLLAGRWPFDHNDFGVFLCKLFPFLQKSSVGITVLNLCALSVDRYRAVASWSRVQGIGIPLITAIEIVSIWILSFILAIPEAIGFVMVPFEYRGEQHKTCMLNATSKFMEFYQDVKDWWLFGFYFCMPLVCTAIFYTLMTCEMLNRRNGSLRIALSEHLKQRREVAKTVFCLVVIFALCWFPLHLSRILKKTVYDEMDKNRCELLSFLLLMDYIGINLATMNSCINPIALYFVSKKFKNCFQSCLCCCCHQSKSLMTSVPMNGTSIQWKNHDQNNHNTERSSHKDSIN

human ETB receptor = target: T2, human ETB receptor (Homo sapiens, UniProt P24530); test: ERBA-B: [125I]-ET-1 binding, recombinant human ETB receptor expressed in CHO-K1 cells; conditions: human cloned ETB receptor, read-out: ERBA-B IC50, human cloned receptor data
T2 construct: expressed in transfected cells; host or cells: CHO-K1 cells, pRc-CMW (so in the source) expression vector, electroporation; membranes used
T2 sequence (P24530 27-442): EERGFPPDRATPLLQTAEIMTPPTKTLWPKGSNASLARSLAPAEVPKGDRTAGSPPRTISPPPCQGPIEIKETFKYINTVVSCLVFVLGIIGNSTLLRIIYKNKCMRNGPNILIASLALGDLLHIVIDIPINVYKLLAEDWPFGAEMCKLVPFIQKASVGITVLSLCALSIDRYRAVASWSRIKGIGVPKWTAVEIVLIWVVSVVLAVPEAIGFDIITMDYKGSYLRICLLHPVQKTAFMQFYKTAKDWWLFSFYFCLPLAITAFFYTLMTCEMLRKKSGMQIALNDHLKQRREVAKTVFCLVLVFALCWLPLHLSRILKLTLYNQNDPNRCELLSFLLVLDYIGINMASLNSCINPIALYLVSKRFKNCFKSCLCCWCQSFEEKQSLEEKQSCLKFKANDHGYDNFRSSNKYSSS
Experimental: Count filters for radioactivity in gamma counter.
The above process has also been modified by using human recombinant CHO-K1 cells.
The tissue used for human ETB was recombinant human ETB receptor expressed in CHO-K1 cells (chinese hamster ovary cells). The gene for human ETB receptor was cloned and inserted into the pRc-CMW expression vector, then transfected into CHO-K1 cells by electroporation. For binding assays, membranes (0.7 mg protein) of CHO-K1 cells expressing recombinant human ETB receptor were used.
^d Human cloned receptor data

Structure (SMILES) | IC50 (ETA) | IC50 (human ETB receptor)
COC(=O)c1cccc(CC2=C(c3ccc4c(c3)OCO4)C(=O)OC2(O)c2ccc(OC)cc2)c1 (stereo not shown) [Example 286, Benzoic acid, 3-[[4-(1,3-benzodioxol-5-yl)-2,5-dihydro-2-hydroxy-2-(4-methoxyphenyl)-5-oxo-3-furanyl]methyl]-, methyl ester] | 4.6 nM | 6000 nM
COC(=O)Cc1ccc(CC2=C(c3ccc4c(c3)OCO4)C(=O)OC2(O)c2ccc(OC)cc2)cc1 (stereo not shown) [Example 291, {4-[4-Benzo[1,3]dioxol-5-yl-2-hydroxy-2-(4-methoxyphenyl)-5-oxo-2,5-dihydro-furan-3-ylmethyl]-phenyl}-acetic acid methyl ester] | 40 nM | 1400 nM
O=C1OC(O)(c2ccc3c(c2)OCO3)C(Cc2ccccc2)=C1c1ccc2c(c1)OCO2 (stereo not shown) [Example 245, 3,5-Bis-benzo[1,3]dioxol-5-yl-4-benzyl-5-hydroxy-5H-furan-2-one] | 110 nM | 2000 nM
COc1ccc(C(=O)/C(Cc2ccccc2)=C(\C(=O)O)c2ccc3c(c2)OCO3)cc1C [Example 355, Sodium 2-Benzo[1,3]dioxol-5-yl-3-benzyl-4-(4-methoxy-3-methyl-phenyl)-4-oxo-but-2-enoate] | 42 nM | 1600 nM
COc1ccc(C2(O)OC(=O)C(c3ccc4c(c3)OCO4)=C2Cc2ccc(CC(=O)O)cc2)cc1 (stereo not shown) [Example 293, {4-[4-Benzo[1,3]dioxol-5-yl-2-hydroxyl-2-(4-methoxy-phenyl)-5-oxo-2,5-dihydro-furan-3-ylmethyl]-phenyl}-acetic acid] | > 2500 nM | > 2500 nM
COc1ccc(C2(O)OC(=O)C(c3ccc4c(c3)OCO4)=C2Cc2ccc(OC)c(OC)c2)cc1 (stereo not shown) [Example 304, 3-Benzo[1,3]dioxol-5-yl-4-(3,4-dimethoxy-benzyl)-5-hydroxy-5-(4-methoxy-phenyl)-5H-furan-2-one] | 4.8 nM | 950 nM
COc1cc(OC)cc(C2=C(Cc3ccc(OC(C)C)c(OC)c3)C(O)(c3ccc(OC)c(C)c3)OC2=O)c1 (stereo not shown) [Example 390, 3-(3,5-Dimethoxy-phenyl)-5-hydroxy-4-(4-isopropoxy-3-methoxy-benzyl)-5-(4-methoxy-3-methyl-phenyl)-5H-furan-2-one] | 7 nM | 820 nM
COc1ccc(C2(O)OC(=O)C(c3ccc4c(c3)OCO4)=C2Cc2cccc(OC)c2OC)cc1 (stereo not shown) [Example 308, 3-Benzo[1,3]dioxol-5-yl-4-(2,3-dimethoxy-benzyl)-5-hydroxy-5-(4-methoxy-phenyl)-5H-furan-2-one] | 16 nM | 2200 nM
COc1ccc(C2(O)OC(=O)C(c3ccc4c(c3)OCO4)=C2Cc2cncc3ccccc23)cc1 (stereo not shown) [Example 161, 3-Benzo[1,3]dioxol-5-yl-5-hydroxy-4-isoquinolin-4-ylmethyl-5-(4-methoxyphenyl)-5H-furan-2-one] | 40 nM | 3200 nM
CCCCCCCCOc1c(C)cc(CC2=C(c3ccc4c(c3)OCO4)C(=O)OC2(O)c2ccc(OC)cc2)cc1C (stereo not shown) [Example 302, 3-Benzo[1,3]dioxol-5-yl-4-(3,5-dimethyl-4-octyloxybenzyl)-5-hydroxy-5-(4-methoxy-phenyl)-5H-furan-2-one] | 2300 nM | 2000 nM
COc1ccc(C2(O)OC(=O)C(c3ccc4c(c3)OCO4)=C2CC2=CC[C@H]3C[C@@H]2C3(C)C)cc1 (stereo partly shown) [Example 310, 3-Benzo[1,3]dioxol-5-yl-4-(6,6-dimethyl-bicyclo[3.1.1]-hept-2-en-2-ylmethyl)-5-hydroxy-5-(4-methoxy-phenyl)-5H-furan-2-one] | 540 nM | 8800 nM
COc1ccc(C/C(C(=O)c2ccc(OC)cc2)=C(/C(=O)O)c2ccc3c(c2)OCO3)cc1 [Example 380, Sodium2-Benzo[1,3]dioxol-5-yl-3-(4-methoxy-benzyl)-4-(4-methoxy-phenyl)-4-o xo-but-2-enoate] | 24 nM | 2000 nM
COc1ccc(C2(O)OC(=O)C(c3ccc4c(c3)OCO4)=C2Cc2cc(OC)ccc2OC)cc1 (stereo not shown) [Example 307, 3-Benzo[1,3]dioxol-5-yl-4-(2,5-dimethoxy-benzyl)-5-hydroxy-5-(4-methoxy-phenyl)-5H-furan-2-one] | 5.9 nM | 1000 nM
COc1ccc(C2(O)OC(=O)C(c3cc(OC)cc(OC)c3)=C2Cc2cc(Cl)cc(Cl)c2)cc1 (stereo not shown) [Example 132, 4-(3,5-Dichlorobenzyl)-3-(3,5-dimethoxyphenyl)-5-hydroxy-5-(4-methoxyphenyl)-5H-furan-2-one] | 70 nM | 2750 nM
COc1ccc(C2(O)OC(=O)C(c3ccc4c(c3)OCO4)=C2Cc2ccccc2)c(OCC(=O)O)c1 (stereo not shown) [Example 341, [2(4-Benzo[1,3]dioxol-5-yl-3-benzyl-2-hydroxy-5-oxo-2,5-dihydro-furan-2-yl) -5-methoxy-phenoxy]-acetic acid] | 80 nM | > 2500 nM
COc1ccc(C2(O)OC(=O)C(c3ccc4c(c3)OCO4)=C2Cc2ccc(OC3CCCCC3)c(C)c2)cc1 (stereo not shown) [Example 397, 3-Benzo[1,3]dioxol-5-yl-4-(4-cyclohexyloxy-3-methylbenzyl)-5-hydroxy-5-(4-methoxy-phenyl)-5H-furan-2-one] | 610 nM | 2600 nM
COc1ccc(C2(O)OC(=O)C(c3ccc4c(c3)OCO4)=C2Cc2ccc(-c3ccccc3)cc2)cc1 (stereo not shown) [Example 162, 3-Benzo[1,3]dioxol-5-yl-4-biphenyl-4-ylmethyl-5-hydroxy-5-(4-methoxyphenyl) -5H-furan-2-one] | 390 nM | 1900 nM
CCOC(=O)COc1c(OC)cc(CC2=C(c3ccc4c(c3)OCO4)C(=O)OC2(O)c2ccc(OC)cc2)cc1OC (stereo not shown) [Example 362, {4-[4-Benzo[1,3]dioxol-5-yl-2-hydroxy-2-(4-methoxyphenyl)-5-oxo-2,5-dihydro-furan-3-ylmethyl]-2,6-dimethoxy-phenoxy}-acetic acid ethyl ester] | 26 nM | 1200 nM
COC(=O)C1CCCC(CC2=C(c3ccc4c(c3)OCO4)C(=O)OC2(O)c2ccc(OC)cc2)C1 (stereo not shown) [Example 399, 3-[4-Benzo[1,3]dioxol-5-yl-2-hydroxy-2-(4-methoxyphenyl)-5-oxo-2,5-dihydro-furan-3-ylmethyl]-cyclohexanecarboxylic acid methyl ester] | 20 nM | 1100 nM
COC(=O)Cc1cccc(CC2=C(c3ccc4c(c3)OCO4)C(=O)OC2(O)c2ccc(OC)cc2)c1 (stereo not shown) [Example 294, {3-[4-Benzo[1,3]dioxol-5-yl-2-hydroxy-2-(4-methoxyphenyl)-5-oxo-2,5-dihydro-furan-3-ylmethyl]-phenyl}-acetic acid methyl ester] | 3.4 nM | 780 nM
COc1ccc(C2(O)OC(=O)C(c3ccc4c(c3)OCO4)=C2CCC2CCCCC2)cc1 (stereo not shown) [Example 322, 3-Benzo-[1,3]dioxol-5-yl-4-(2-cyclohexyl-ethyl)-5-hydroxy-5-(4-methoxy-phenyl)-5H-furan-2-one] | 3300 nM | 4000 nM
COc1ccc(C2(O)OC(=O)C(c3ccc4c(c3)OCO4)=C2CC2CCCc3ccccc32)cc1 (stereo not shown) [Example 398, 3-Benzo[1,3]dioxol-5-yl-5-hydroxy-5-(4-methoxy-phenyl)-4-(1,2,3,4-tetrahydro-naphthalen-1-ylmethyl)-5H-furan-2-one] | 830 nM | > 2500 nM
COc1ccc(C2(O)OC(=O)C(c3ccc4c(c3)OCO4)=C2CC2CC2)cc1 (stereo not shown) [Example 400, 3-Benzo[1,3]dioxol-5-yl-4-cyclopropylmethyl-5-hydroxy-5-(4-methoxy-phenyl)-5H-furan-2-one] | 39 nM | > 2500 nM
COc1cc(OC)cc(C2=C(Cc3ccc(NC(C)=O)cc3)C(O)(c3ccc(OC)c(C)c3)OC2=O)c1 (stereo not shown) [Example 385, N-{4-[4-(3,5-Dimethoxy-phenyl)-2-hydroxy-2-(4-methoxy-3-methyl-phenyl)-5-oxo-2,5-dihydro-furan-3-ylmethyl]-phenyl}-acetamide] | 0.8 nM | 690 nM
COc1ccc(C2(O)OC(=O)C(c3ccc4c(c3)OCO4)=C2CC2CCCCCC2)cc1 (stereo not shown) [Example 339, 3-Benzo[1,3]dioxol-5-yl-4-cycloheptylmethyl-5-hydroxy-5-(4-methoxy-phenyl)-5H-furan-2-one] | 240 nM | 1300 nM
C=CCOc1cc(OC)ccc1CC1=C(c2ccc3c(c2)OCO3)C(=O)OC1(O)c1ccc(OC)cc1 (stereo not shown) [Example 343, 4(2-Allyloxy-4-methoxy-benzyl)-3-benzo[1,3]dioxol-5-yl-5-hydroxy-5-(4-methoxy-phenyl)-5H-furan-2-one] | 10 nM | 2200 nM
